The values below come from article PMC6832920, “Synthesis, Docking Studies, and In Vitro Evaluation of Some Novel Thienopyridines and Fused Thienopyridine–Quinolines as Antibacterial Agents and DNA Gyrase Inhibitors” (Molecules, 2019).

The subject of series [1] is Escherichia coli 8739. Nature of the series: agar disc-diffusion antibacterial assay. It counts as cell-based. As to conditions: E. coli 8739, disc loaded with 100 μg, 37 °C, 24 h, read-out: diameter of inhibition zone. A general note: A growth-free zone around the sample is the usual read-out of agar diffusion tests.
Procedure: (§1) The clinical control strains of Gram-negative bacteria (Escherichia coli 8739, Salmonella typhimurium 14028, Pseudomonas aeruginosa 27853) and Gram-positive bacteria (Bacillus subtilis 6633, Bacillus cereus 33018, Staphylococcus aureus 25923), were obtained from microbial inoculums by subculturing microorganisms into nutrient broth (NB) at 37 °C for 18 h, and were adjusted to 0.125 A° at 625 nm (equivalent to a McFarland 0.5) in 2-fold NB. A 100 μL measure of NB containing each test microorganism was added to the sterile Petri dishes. Antibacterial testing was carried out on all compounds (3a,b–14) using the agar disc-diffusion method [40]. Sterile nutrients were inoculated with 100 μL cell suspension of the chosen test microorganism and poured into Petri dishes (20 cm diameter). Filter paper discs (Whatman, No.3, diameter 5 mm) were loaded with 10 μL containing 100 μg of the tested compounds, as well as the standard drug. Composite compound disks were placed on the surface of inoculated agar plates and kept at low temperatures before incubation in order to support the swelling and diffusion of the microbial growth. The plates were incubated at 37 °C in the incubator. Experiments were performed in duplicate and the diameters of inhibition zones were measured after 24 h. A diameter of inhibition zone (DIZ) assay was performed to evaluate the antimicrobial potential of the compounds against the tested organisms compared with reference antibiotics.
Series [2] deals with Salmonella typhimurium 14028. In words: agar disc-diffusion antibacterial assay. It counts as cell-based. As to conditions: Salmonella enterica; S. typhimurium 14028; disc loaded with 100 μg; 37 °C, 24 h; read-out: diameter of inhibition zone.
Procedure: (§2) The clinical control strains of Gram-negative bacteria (Escherichia coli 8739, Salmonella typhimurium 14028, Pseudomonas aeruginosa 27853) and Gram-positive bacteria (Bacillus subtilis 6633, Bacillus cereus 33018, Staphylococcus aureus 25923), were obtained from microbial inoculums by subculturing microorganisms into nutrient broth (NB) at 37 °C for 18 h, and were adjusted to 0.125 A° at 625 nm (equivalent to a McFarland 0.5) in 2-fold NB. A 100 μL measure of NB containing each test microorganism was added to the sterile Petri dishes. Antibacterial testing was carried out on all compounds (3a,b–14) using the agar disc-diffusion method [40]. Sterile nutrients were inoculated with 100 μL cell suspension of the chosen test microorganism and poured into Petri dishes (20 cm diameter). Filter paper discs (Whatman, No.3, diameter 5 mm) were loaded with 10 μL containing 100 μg of the tested compounds, as well as the standard drug. Composite compound disks were placed on the surface of inoculated agar plates and kept at low temperatures before incubation in order to support the swelling and diffusion of the microbial growth. The plates were incubated at 37 °C in the incubator. Experiments were performed in duplicate and the diameters of inhibition zones were measured after 24 h.
Series [3] has as its system Pseudomonas aeruginosa 27853. In words: agar disc-diffusion antibacterial assay. The series is classed as cell-based. As to conditions: P. aeruginosa 27853, disc loaded with 100 μg, 37 °C, 24 h, read-out: diameter of inhibition zone.
Procedure: as §1
The test system of series [4] is Bacillus subtilis 6633. In words: agar disc-diffusion antibacterial assay. The series is classed as cell-based. As to conditions: B. subtilis 6633, disc loaded with 100 μg, 37 °C, 24 h, read-out: diameter of inhibition zone.
Procedure: (§3) A 100 μL measure of NB containing each test microorganism was added to the sterile Petri dishes. Antibacterial testing was carried out on all compounds (3a,b–14) using the agar disc-diffusion method [40]. Sterile nutrients were inoculated with 100 μL cell suspension of the chosen test microorganism and poured into Petri dishes (20 cm diameter). Filter paper discs (Whatman, No.3, diameter 5 mm) were loaded with 10 μL containing 100 μg of the tested compounds, as well as the standard drug. Composite compound disks were placed on the surface of inoculated agar plates and kept at low temperatures before incubation in order to support the swelling and diffusion of the microbial growth. The plates were incubated at 37 °C in the incubator. Experiments were performed in duplicate and the diameters of inhibition zones were measured after 24 h. A diameter of inhibition zone (DIZ) assay was performed to evaluate the antimicrobial potential of the compounds against the tested organisms compared with reference antibiotics.
Series [5] has as its system Bacillus cereus 33018. In words: agar disc-diffusion antibacterial assay. The series is classed as cell-based. As to conditions: B. cereus 33018, disc loaded with 100 μg, 37 °C, 24 h, read-out: diameter of inhibition zone.
Procedure: as §3
Series [6] concerns Staphylococcus aureus 25923. In words: agar disc-diffusion antibacterial assay. The series is classed as cell-based. The settings on record: S. aureus 25923, disc loaded with 100 μg, 37 °C, 24 h, read-out: diameter of inhibition zone.
Procedure: as §1
The subject of series [7] is Escherichia coli 8739. Nature of the series: MIC determination by dilution procedure. It counts as cell-based. The settings on record: E. coli 8739, dilutions 125-1.95 μg/mL, read-out: minimum inhibitory concentration (MIC).
The test system of series [8] is Salmonella typhimurium 14028. Nature of the series: MIC determination by dilution procedure. The series is classed as cell-based. As to conditions: Salmonella enterica; S. typhimurium 14028; dilutions 125-1.95 μg/mL; read-out: minimum inhibitory concentration (MIC).
Procedure: as §2
Series [9] has as its system Pseudomonas aeruginosa 27853. In words: MIC determination by dilution procedure. The settings on record: Pseudomonas aeruginosa, 27853, P. aeruginosa 27853; dilutions 125-1.95 μg/mL; read-out: minimum inhibitory concentration (MIC). The series is classed as cell-based.
Series [10] concerns Bacillus subtilis 6633. In words: MIC determination by dilution procedure. It counts as cell-based. As to conditions: B. subtilis 6633, dilutions 125-1.95 μg/mL, read-out: minimum inhibitory concentration (MIC).
Procedure: as §3
Series [11] deals with Bacillus cereus 33018. Nature of the series: MIC determination by dilution procedure. The settings on record: B. cereus 33018, dilutions 125-1.95 μg/mL, read-out: minimum inhibitory concentration (MIC). The series is classed as cell-based.
Procedure: as §3
For series [12], the system named is Staphylococcus aureus 25923. In words: MIC determination by dilution procedure. As to conditions: Staphylococcus aureus, 25923, S. aureus 25923; dilutions 125-1.95 μg/mL; read-out: minimum inhibitory concentration (MIC). It counts as cell-based.
Procedure: as §3
The next series has as its target T1, DNA gyrase from E. coli (Escherichia coli, UniProt P0AES6).
T1 construct: purchased TopoGEN
In words: Escherichia coli DNA gyrase supercoiling inhibition assay. It counts as biochemical.

SMILES strings stand for the structures. Values after ≈ are worked out from the molar mass of the structure shown.

In the case of `Nc1c2c(nc3c1sc1nc(-c4ccco4)cc(-c4cccs4)c13)CCCC2` [Compound 5b, 2-(Furan-2-yl)-4-(thiophen-2-yl)-6,7,8,9-tetrahydropyrido[3′,2′:4,5]thieno[3,2-b]quinolin-10-amine], the melting point – broadly, the temperature, or range, at which the solid turns liquid – stood at 248 °C. Moreover, the zone of inhibition (usually the extent of the growth-free halo in a diffusion test) at 100 µg/disc in the series with Escherichia coli 8739 [1] worked out at 15 mm. For the same compound, the zone of inhibition at 100 µg/disc in series [2] is 17 mm. Further, the zone of inhibition at 100 µg/disc in series [3] is 14 mm. Also, the zone of inhibition at 100 µg/disc with Bacillus subtilis 6633 [4] turned out to be 12 mm. Also, the zone of inhibition at 100 µg/disc in the series on Bacillus cereus 33018 [5] is 16 mm. Besides, in series [6], the zone of inhibition at 100 µg/disc was determined as 13 mm. In addition, in the series with Escherichia coli 8739 [7], the MIC amounted to 15.6 µg/mL (≈ 38.7 µM). Further, in series [8], the MIC was 15.6 µg/mL (≈ 38.7 µM). Moreover, the MIC in series [9] turned out to be 15.6 µg/mL (≈ 38.7 µM). Further, the MIC in the series on Bacillus subtilis 6633 [10] came to 31.2 µg/mL (≈ 77.4 µM). The MIC with Bacillus cereus 33018 [11] came to 15.6 µg/mL (≈ 38.7 µM). The MIC in series [12] turned out to be 31.2 µg/mL (≈ 77.4 µM). On DNA gyrase from E. coli, the IC50 – broadly, the point on the concentration scale where inhibition reaches its midpoint – turned out to be 16.7 ± 0.88 µM.

On to `NC(=O)c1sc2nc(-c3ccco3)cc(-c3cccs3)c2c1N` [Compound 3b, 3-Amino-6-(furan-2-yl)-4-(thiophen-2-yl)thieno[2,3-b]pyridine-2-carboxamide], for which the melting point was 253 °C. The zone of inhibition at 100 µg/disc in the series with Escherichia coli 8739 [1] stood at 19 mm. Besides, in series [2], the zone of inhibition at 100 µg/disc turned out to be 18 mm. Also, the zone of inhibition at 100 µg/disc in series [3] was determined as 13 mm. In the series on Bacillus subtilis 6633 [4], the zone of inhibition at 100 µg/disc came to 12 mm. The zone of inhibition at 100 µg/disc in the series on Bacillus cereus 33018 [5] was 18 mm. The zone of inhibition at 100 µg/disc in series [6] was found to be 13 mm. Moreover, in the series with Escherichia coli 8739 [7], the MIC turned out to be 15.6 µg/mL (≈ 45.8 µM). Moreover, the MIC in series [8] was 15.6 µg/mL (≈ 45.8 µM). Besides, the MIC in series [9] turned out to be 31.2 µg/mL (≈ 91.5 µM). For the same compound, the MIC with Bacillus subtilis 6633 [10] worked out at 31.2 µg/mL (≈ 91.5 µM). In addition, the MIC in the series with Bacillus cereus 33018 [11] was 15.6 µg/mL (≈ 45.8 µM). In addition, in series [12], the MIC was determined as 31.2 µg/mL (≈ 91.5 µM). Moreover, the IC50 against DNA gyrase from E. coli was found to be 4.5 ± 0.32 µM.

With `COc1ccc(-c2cc(-c3ccco3)nc3sc4c(NC(=O)CCl)c5c(nc4c23)CCCC5)cc1` [Compound 6a, 2-Chloro-N-(2-(furan-2-yl)-4-(4-methoxyphenyl)-6,7,8,9-tetrahydropyrido[3′,2′:4,5]thieno[3,2-b]quinolin-10-yl)acetamide], the melting point was in the range of 342 to 343 °C. Besides, the zone of inhibition at 100 µg/disc in the series on Escherichia coli 8739 [1] came to 13 mm. Moreover, the zone of inhibition at 100 µg/disc in series [3] was 13 mm. Further, the zone of inhibition at 100 µg/disc in the series with Bacillus subtilis 6633 [4] amounted to 10 mm. Besides, the zone of inhibition at 100 µg/disc in the series with Bacillus cereus 33018 [5] turned out to be 13 mm. Besides, the zone of inhibition at 100 µg/disc in series [6] is 12 mm. In addition, the MIC with Escherichia coli 8739 [7] stood at 31.2 µg/mL (≈ 62 µM). The MIC in series [9] turned out to be 31.2 µg/mL (≈ 62 µM). For the same compound, in the series on Bacillus subtilis 6633 [10], the MIC was determined as 31.2 µg/mL (≈ 62 µM). The MIC in the series with Bacillus cereus 33018 [11] was 31.2 µg/mL (≈ 62 µM). In addition, the MIC in series [12] worked out at 31.2 µg/mL (≈ 62 µM). Besides, the IC50 on DNA gyrase from E. coli was found to be 13.7 ± 0.65 µM.

On to `O=C(CCl)Nc1c2c(nc3c1sc1nc(-c4ccco4)cc(-c4cccs4)c13)CCCC2` [Compound 6b, 2-Chloro-N-(2-(furan-2-yl)-4-(thiophen-2-yl)-6,7,8,9-tetrahydropyrido[3′,2′:4,5]thieno[3,2-b]quinolin-10-yl)acetamide], for which the melting point is 338 °C. Besides, in the series on Escherichia coli 8739 [1], the zone of inhibition at 100 µg/disc came out at 16 mm. Further, in series [2], the zone of inhibition at 100 µg/disc amounted to 12 mm. Further, the zone of inhibition at 100 µg/disc in series [3] worked out at 12 mm. Besides, the zone of inhibition at 100 µg/disc in the series on Bacillus subtilis 6633 [4] is 15 mm. Also, the zone of inhibition at 100 µg/disc with Bacillus cereus 33018 [5] was 15 mm. In the series with Escherichia coli 8739 [7], the MIC stood at 15.6 µg/mL (≈ 32.6 µM). The MIC in [8] stood at 31.2 µg/mL (≈ 65.1 µM). Further, the MIC in [9] turned out to be 31.2 µg/mL (≈ 65.1 µM). The MIC with Bacillus subtilis 6633 [10] came out at 15.6 µg/mL (≈ 32.6 µM). Moreover, the MIC in the series with Bacillus cereus 33018 [11] amounted to 15.6 µg/mL (≈ 32.6 µM). This compound registered an IC50 on DNA gyrase from E. coli of 5.95 ± 0.34 µM.

On to `COc1ccc(-c2cc(-c3ccco3)nc3sc(C(N)=O)c(N)c23)cc1` [Compound 3a, 3-Amino-6-(furan-2-yl)-4-(4-methoxyphenyl)thieno[2,3-b]pyridine-2-carboxamide], for which the zone of inhibition at 100 µg/disc came to 18 mm in the series with Escherichia coli 8739 [1]; 15 mm in series [2]; 15 mm in series [3]; 10 mm in the series with Bacillus subtilis 6633 [4]; 13 mm in the series on Bacillus cereus 33018 [5]; 12 mm in [6]. For the same compound, the MIC in the series with Escherichia coli 8739 [7] turned out to be 15.6 µg/mL (≈ 42.8 µM); in series [8], 15.6 µg/mL (≈ 42.8 µM); in [9], 15.6 µg/mL (≈ 42.8 µM); with Bacillus subtilis 6633 [10], 31.2 µg/mL (≈ 85.5 µM); in the series with Bacillus cereus 33018 [11], 31.2 µg/mL (≈ 85.5 µM); in series [12] it was 31.2 µg/mL (≈ 85.5 µM). Moreover, the IC50 against DNA gyrase from E. coli stood at 2.26 ± 0.19 µM.
